Data from the NIST ThermoML archive (doi:10.1021/je050540h).
± gives the expanded uncertainty stated by the source.

Test: xn = mol fraction of the nth substance listed
Conditions: Liquid; for speed of sound: 7 kPa; for mass density / viscosity: 101 kPa

CCCC(C)O (stereo not drawn) [pentan-2-ol] + C1CCCCC1
speed of sound (293.15 K, x2 = 0): 1250 ± 3 m/s | speed of sound (293.15 K, x2 = 0.0495): 1247 ± 3 m/s | speed of sound (293.15 K, x2 = 0.1002): 1244 ± 3 m/s | speed of sound (293.15 K, x2 = 0.2019): 1238 ± 3 m/s | speed of sound (293.15 K, x2 = 0.3067): 1234 ± 3 m/s | speed of sound (293.15 K, x2 = 0.4011): 1231 ± 3 m/s | speed of sound (293.15 K, x2 = 0.5085): 1230 ± 3 m/s | speed of sound (293.15 K, x2 = 0.6066): 1232 ± 3 m/s | speed of sound (293.15 K, x2 = 0.7118): 1239 ± 3 m/s | speed of sound (293.15 K, x2 = 0.8096): 1247 ± 3 m/s | speed of sound (293.15 K, x2 = 0.9049): 1259 ± 3 m/s | speed of sound (293.15 K, x2 = 0.9557): 1267 ± 3 m/s | mass density (293.15 K, x2 = 0): 809.04 ± 0.47 kg/m3 | viscosity (293.15 K, x2 = 0): 4.001 ± 0.093 mPa·s | mass density (293.15 K, x2 = 0.0495): 806.87 ± 0.47 kg/m3 | viscosity (293.15 K, x2 = 0.0495): 3.606 ± 0.084 mPa·s | mass density (293.15 K, x2 = 0.1002): 804.68 ± 0.47 kg/m3 | viscosity (293.15 K, x2 = 0.1002): 3.195 ± 0.075 mPa·s | mass density (293.15 K, x2 = 0.2019): 800.29 ± 0.47 kg/m3 | viscosity (293.15 K, x2 = 0.2019): 2.516 ± 0.06 mPa·s | mass density (293.15 K, x2 = 0.3067): 796.06 ± 0.47 kg/m3 | viscosity (293.15 K, x2 = 0.3067): 1.922 ± 0.046 mPa·s | mass density (293.15 K, x2 = 0.4011): 792.42 ± 0.48 kg/m3 | viscosity (293.15 K, x2 = 0.4011): 1.583 ± 0.038 mPa·s | mass density (293.15 K, x2 = 0.5085): 788.62 ± 0.48 kg/m3 | viscosity (293.15 K, x2 = 0.5085): 1.317 ± 0.032 mPa·s | mass density (293.15 K, x2 = 0.6066): 785.63 ± 0.48 kg/m3 | viscosity (293.15 K, x2 = 0.6066): 1.17 ± 0.029 mPa·s | mass density (293.15 K, x2 = 0.7118): 782.94 ± 0.48 kg/m3 | viscosity (293.15 K, x2 = 0.7118): 1.067 ± 0.027 mPa·s | mass density (293.15 K, x2 = 0.8096): 780.86 ± 0.48 kg/m3 | viscosity (293.15 K, x2 = 0.8096): 1.045 ± 0.026 mPa·s | mass density (293.15 K, x2 = 0.9049): 779.29 ± 0.48 kg/m3 | viscosity (293.15 K, x2 = 0.9049): 1.009 ± 0.025 mPa·s | mass density (293.15 K, x2 = 0.9557): 778.62 ± 0.48 kg/m3 | viscosity (293.15 K, x2 = 0.9557): 0.997 ± 0.025 mPa·s | speed of sound (298.15 K, x2 = 0): 1232 ± 3 m/s | speed of sound (298.15 K, x2 = 0.0495): 1229 ± 3 m/s | speed of sound (298.15 K, x2 = 0.1002): 1225 ± 3 m/s | speed of sound (298.15 K, x2 = 0.2019): 1218 ± 3 m/s | speed of sound (298.15 K, x2 = 0.3067): 1213 ± 3 m/s | speed of sound (298.15 K, x2 = 0.4011): 1210 ± 3 m/s | speed of sound (298.15 K, x2 = 0.5085): 1209 ± 3 m/s | speed of sound (298.15 K, x2 = 0.6066): 1211 ± 3 m/s | speed of sound (298.15 K, x2 = 0.7118): 1216 ± 3 m/s | speed of sound (298.15 K, x2 = 0.8096): 1224 ± 3 m/s | speed of sound (298.15 K, x2 = 0.9049): 1235 ± 3 m/s | speed of sound (298.15 K, x2 = 0.9557): 1243 ± 3 m/s | mass density (298.15 K, x2 = 0): 805.01 ± 0.48 kg/m3 | viscosity (298.15 K, x2 = 0): 3.273 ± 0.077 mPa·s | mass density (298.15 K, x2 = 0.0495): 802.77 ± 0.48 kg/m3 | viscosity (298.15 K, x2 = 0.0495): 2.969 ± 0.071 mPa·s | mass density (298.15 K, x2 = 0.1002): 800.52 ± 0.48 kg/m3 | viscosity (298.15 K, x2 = 0.1002): 2.658 ± 0.063 mPa·s | mass density (298.15 K, x2 = 0.2019): 796 ± 0.48 kg/m3 | viscosity (298.15 K, x2 = 0.2019): 2.125 ± 0.051 mPa·s | mass density (298.15 K, x2 = 0.3067): 791.67 ± 0.48 kg/m3 | viscosity (298.15 K, x2 = 0.3067): 1.659 ± 0.04 mPa·s | mass density (298.15 K, x2 = 0.4011): 787.98 ± 0.48 kg/m3 | viscosity (298.15 K, x2 = 0.4011): 1.385 ± 0.034 mPa·s | mass density (298.15 K, x2 = 0.5085): 784.11 ± 0.48 kg/m3 | viscosity (298.15 K, x2 = 0.5085): 1.178 ± 0.029 mPa·s | mass density (298.15 K, x2 = 0.6066): 781.09 ± 0.48 kg/m3 | viscosity (298.15 K, x2 = 0.6066): 1.056 ± 0.026 mPa·s | mass density (298.15 K, x2 = 0.7118): 778.32 ± 0.49 kg/m3 | viscosity (298.15 K, x2 = 0.7118): 0.97 ± 0.024 mPa·s | mass density (298.15 K, x2 = 0.8096): 776.18 ± 0.49 kg/m3 | viscosity (298.15 K, x2 = 0.8096): 0.952 ± 0.024 mPa·s | mass density (298.15 K, x2 = 0.9049): 774.54 ± 0.49 kg/m3 | viscosity (298.15 K, x2 = 0.9049): 0.924 ± 0.023 mPa·s | mass density (298.15 K, x2 = 0.9557): 773.86 ± 0.49 kg/m3 | viscosity (298.15 K, x2 = 0.9557): 0.912 ± 0.023 mPa·s | speed of sound (303.15 K, x2 = 0): 1214 ± 3 m/s | speed of sound (303.15 K, x2 = 0.0495): 1210 ± 3 m/s | speed of sound (303.15 K, x2 = 0.1002): 1206 ± 3 m/s | speed of sound (303.15 K, x2 = 0.2019): 1199 ± 3 m/s | speed of sound (303.15 K, x2 = 0.3067): 1193 ± 3 m/s | speed of sound (303.15 K, x2 = 0.4011): 1189 ± 3 m/s | speed of sound (303.15 K, x2 = 0.5085): 1187 ± 3 m/s | speed of sound (303.15 K, x2 = 0.6066): 1189 ± 3 m/s | speed of sound (303.15 K, x2 = 0.7118): 1194 ± 3 m/s | speed of sound (303.15 K, x2 = 0.8096): 1201 ± 3 m/s | speed of sound (303.15 K, x2 = 0.9049): 1211 ± 3 m/s | speed of sound (303.15 K, x2 = 0.9557): 1219 ± 3 m/s | mass density (303.15 K, x2 = 0): 800.9 ± 0.48 kg/m3 | viscosity (303.15 K, x2 = 0): 2.774 ± 0.066 mPa·s | mass density (303.15 K, x2 = 0.0495): 798.6 ± 0.48 kg/m3 | viscosity (303.15 K, x2 = 0.0495): 2.474 ± 0.059 mPa·s | mass density (303.15 K, x2 = 0.1002): 796.28 ± 0.48 kg/m3 | viscosity (303.15 K, x2 = 0.1002): 2.237 ± 0.054 mPa·s | mass density (303.15 K, x2 = 0.2019): 791.65 ± 0.48 kg/m3 | viscosity (303.15 K, x2 = 0.2019): 1.82 ± 0.044 mPa·s | mass density (303.15 K, x2 = 0.3067): 787.23 ± 0.49 kg/m3 | viscosity (303.15 K, x2 = 0.3067): 1.441 ± 0.035 mPa·s | mass density (303.15 K, x2 = 0.4011): 783.48 ± 0.49 kg/m3 | viscosity (303.15 K, x2 = 0.4011): 1.233 ± 0.03 mPa·s | mass density (303.15 K, x2 = 0.5085): 779.56 ± 0.49 kg/m3 | viscosity (303.15 K, x2 = 0.5085): 1.058 ± 0.026 mPa·s | mass density (303.15 K, x2 = 0.6066): 776.49 ± 0.49 kg/m3 | viscosity (303.15 K, x2 = 0.6066): 0.957 ± 0.024 mPa·s | mass density (303.15 K, x2 = 0.7118): 773.65 ± 0.49 kg/m3 | viscosity (303.15 K, x2 = 0.7118): 0.885 ± 0.022 mPa·s | mass density (303.15 K, x2 = 0.8096): 771.44 ± 0.49 kg/m3 | viscosity (303.15 K, x2 = 0.8096): 0.871 ± 0.022 mPa·s | mass density (303.15 K, x2 = 0.9049): 769.74 ± 0.49 kg/m3 | viscosity (303.15 K, x2 = 0.9049): 0.845 ± 0.022 mPa·s | mass density (303.15 K, x2 = 0.9557): 769.07 ± 0.49 kg/m3 | viscosity (303.15 K, x2 = 0.9557): 0.837 ± 0.021 mPa·s
